#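 1) Cells in 96-well plates. 2) Compound, 48 h, 5 concentrations. 3) Linear interpolation between surrounding doses. 4) Unreached endpoint = highest concentration. At the GI50, growth is halved. TGI is the concentration that stops growth completely.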
# Legend:
# Test in all cases: NCI anticancer screen, dose series, 48 h
# COLO 205 colon = tested on: COLO 205 colon
# SNB-19 CNS = tested on: SNB-19 CNS
# NCI/ADR-RES ovarian = tested on: NCI/ADR-RES ovarian
# OVCAR-4 ovarian = tested on: OVCAR-4 ovarian
# SK-MEL-2 melanoma = tested on: SK-MEL-2 melanoma
# UACC-257 melanoma = tested on: UACC-257 melanoma
# MOLT-4 leukemia = tested on: MOLT-4 leukemia
# EKVX NSCLC = tested on: EKVX NSCLC
# SNB-75 CNS = tested on: SNB-75 CNS
# T-47D breast = tested on: T-47D breast
# SN12C renal = tested on: SN12C renal
# A498 renal = tested on: A498 renal
# MDA-MB-435 = tested on: MDA-MB-435
# HCT-15 colon = tested on: HCT-15 colon
# MDA-MB-231 breast = tested on: MDA-MB-231 breast
# UO-31 renal = tested on: UO-31 renal
# OVCAR-8 ovarian = tested on: OVCAR-8 ovarian
# RXF 393 renal = tested on: RXF 393 renal
# IGROV1 ovarian = tested on: IGROV1 ovarian
# KM12 colon = tested on: KM12 colon
# TK-10 renal = tested on: TK-10 renal
# OVCAR-3 ovarian = tested on: OVCAR-3 ovarian
# SF-295 CNS = tested on: SF-295 CNS
# SW-620 colon = tested on: SW-620 colon
# HOP-62 NSCLC = tested on: HOP-62 NSCLC
# M14 melanoma = tested on: M14 melanoma
# SR leukemia = tested on: SR leukemia
# SF-539 CNS = tested on: SF-539 CNS
# A549 NSCLC = tested on: A549 NSCLC
# K-562 leukemia = tested on: K-562 leukemia
# HS 578T breast = tested on: HS 578T breast
# HL-60(TB) leukemia = tested on: HL-60(TB) leukemia
# CCRF-CEM leukemia = tested on: CCRF-CEM leukemia
# PC-3 prostate = tested on: PC-3 prostate
# NCI-H522 lung = tested on: NCI-H522 lung
# LOX IMVI melanoma = tested on: LOX IMVI melanoma
# UACC-62 melanoma = tested on: UACC-62 melanoma
# MCF7 breast = tested on: MCF7 breast
# NCI-H460 lung = tested on: NCI-H460 lung
# MALME-3M melanoma = tested on: MALME-3M melanoma
# NCI-H23 lung = tested on: NCI-H23 lung
# 786-0 renal = tested on: 786-0 renal
# HOP-92 NSCLC = tested on: HOP-92 NSCLC
# OVCAR-5 ovarian = tested on: OVCAR-5 ovarian
# SK-MEL-28 melanoma = tested on: SK-MEL-28 melanoma
# U251 CNS = tested on: U251 CNS
# ACHN renal = tested on: ACHN renal
# HCT-116 colon = tested on: HCT-116 colon
# RPMI-8226 leukemia = tested on: RPMI-8226 leukemia
# SK-OV-3 ovarian = tested on: SK-OV-3 ovarian
# HT29 colon = tested on: HT29 colon
# NCI-H226 lung = tested on: NCI-H226 lung
# SF-268 CNS = tested on: SF-268 CNS
# BT-549 breast = tested on: BT-549 breast
# SK-MEL-5 melanoma = tested on: SK-MEL-5 melanoma
# HCC-2998 colon = tested on: HCC-2998 colon
# CAKI-1 renal = tested on: CAKI-1 renal
# DU-145 prostate = tested on: DU-145 prostate
# MDA-N = tested on: MDA-N
smiles,measurement,setting,value
CCOC(=O)C(Cc1ccc(CCCC(=O)NCCC(=O)Nc2ccc3nc(C)sc3c2)cc1)C(=O)OCC,GI50,COLO 205 colon,32.3 µM
same,TGI,COLO 205 colon,> 96.4 µM
same,GI50,SNB-19 CNS,> 100 µM
same,TGI,SNB-19 CNS,> 100 µM
same,GI50,NCI/ADR-RES ovarian,24.6 µM
same,TGI,NCI/ADR-RES ovarian,69.1 µM
same,GI50,OVCAR-4 ovarian,38.1 µM
same,TGI,OVCAR-4 ovarian,> 100 µM
same,GI50,SK-MEL-2 melanoma,33 µM
same,TGI,SK-MEL-2 melanoma,> 62 µM
same,GI50,UACC-257 melanoma,34.7 µM
same,TGI,UACC-257 melanoma,> 87.1 µM
same,GI50,MOLT-4 leukemia,21.3 µM
same,TGI,MOLT-4 leukemia,54.5 µM
same,GI50,EKVX NSCLC,53.7 µM
same,TGI,EKVX NSCLC,> 100 µM
same,GI50,SNB-75 CNS,> 52.1 µM
same,TGI,SNB-75 CNS,> 100 µM
same,GI50,T-47D breast,19.7 µM
same,TGI,T-47D breast,74.1 µM
same,GI50,SN12C renal,31.4 µM
same,TGI,SN12C renal,> 100 µM
same,GI50,A498 renal,> 100 µM
same,TGI,A498 renal,> 100 µM
same,GI50,MDA-MB-435,26 µM
same,TGI,MDA-MB-435,76.5 µM
same,GI50,HCT-15 colon,31.8 µM
same,TGI,HCT-15 colon,> 100 µM
same,GI50,MDA-MB-231 breast,52.5 µM
same,TGI,MDA-MB-231 breast,> 100 µM
same,GI50,UO-31 renal,26.9 µM
same,TGI,UO-31 renal,> 76.8 µM
same,GI50,OVCAR-8 ovarian,20.1 µM
same,TGI,OVCAR-8 ovarian,42.1 µM
same,GI50,RXF 393 renal,36.4 µM
same,TGI,RXF 393 renal,> 100 µM
same,GI50,IGROV1 ovarian,64.8 µM
same,TGI,IGROV1 ovarian,> 100 µM
same,GI50,KM12 colon,33.4 µM
same,TGI,KM12 colon,> 100 µM
same,GI50,TK-10 renal,> 100 µM
same,TGI,TK-10 renal,> 100 µM
same,GI50,OVCAR-3 ovarian,54.9 µM
same,TGI,OVCAR-3 ovarian,> 100 µM
same,GI50,SF-295 CNS,49.4 µM
same,TGI,SF-295 CNS,> 100 µM
same,GI50,SW-620 colon,> 93.2 µM
same,TGI,SW-620 colon,> 100 µM
same,GI50,HOP-62 NSCLC,> 83.3 µM
same,TGI,HOP-62 NSCLC,> 100 µM
same,GI50,M14 melanoma,29.3 µM
same,TGI,M14 melanoma,> 93.8 µM
same,GI50,SR leukemia,50.8 µM
same,TGI,SR leukemia,> 100 µM
same,GI50,SF-539 CNS,42.5 µM
same,TGI,SF-539 CNS,> 82.6 µM
same,GI50,A549 NSCLC,59.1 µM
same,TGI,A549 NSCLC,> 100 µM
same,GI50,K-562 leukemia,47.3 µM
same,TGI,K-562 leukemia,> 100 µM
same,GI50,HS 578T breast,68.3 µM
same,TGI,HS 578T breast,> 100 µM
same,GI50,HL-60(TB) leukemia,23.7 µM
same,TGI,HL-60(TB) leukemia,64.7 µM
same,GI50,CCRF-CEM leukemia,28.6 µM
same,TGI,CCRF-CEM leukemia,> 89.3 µM
same,GI50,PC-3 prostate,24.3 µM
same,TGI,PC-3 prostate,> 70.7 µM
same,GI50,NCI-H522 lung,33.1 µM
same,TGI,NCI-H522 lung,> 100 µM
same,GI50,LOX IMVI melanoma,33.2 µM
same,TGI,LOX IMVI melanoma,> 100 µM
same,GI50,UACC-62 melanoma,26.2 µM
same,TGI,UACC-62 melanoma,> 69.5 µM
same,GI50,MCF7 breast,22.2 µM
same,TGI,MCF7 breast,64.3 µM
same,GI50,NCI-H460 lung,> 62.4 µM
same,TGI,NCI-H460 lung,> 100 µM
same,GI50,MALME-3M melanoma,28.3 µM
same,TGI,MALME-3M melanoma,> 84.4 µM
same,GI50,NCI-H23 lung,28.9 µM
same,TGI,NCI-H23 lung,> 93.7 µM
same,GI50,786-0 renal,> 77.9 µM
same,TGI,786-0 renal,> 100 µM
same,GI50,HOP-92 NSCLC,55.6 µM
same,TGI,HOP-92 NSCLC,> 100 µM
same,GI50,OVCAR-5 ovarian,> 100 µM
same,TGI,OVCAR-5 ovarian,> 100 µM
same,GI50,SK-MEL-28 melanoma,28.7 µM
same,TGI,SK-MEL-28 melanoma,> 96.7 µM
same,GI50,U251 CNS,> 81.4 µM
same,TGI,U251 CNS,> 100 µM
same,GI50,ACHN renal,18.2 µM
same,TGI,ACHN renal,34.3 µM
same,GI50,HCT-116 colon,45.8 µM
same,TGI,HCT-116 colon,> 100 µM
same,GI50,RPMI-8226 leukemia,21.1 µM
same,TGI,RPMI-8226 leukemia,53.4 µM
same,GI50,SK-OV-3 ovarian,> 100 µM
same,TGI,SK-OV-3 ovarian,> 100 µM
same,GI50,HT29 colon,> 64.2 µM
same,TGI,HT29 colon,> 100 µM
same,GI50,NCI-H226 lung,36.1 µM
same,TGI,NCI-H226 lung,> 100 µM
same,GI50,SF-268 CNS,> 78 µM
same,TGI,SF-268 CNS,> 100 µM
same,GI50,BT-549 breast,23.7 µM
same,TGI,BT-549 breast,72.8 µM
same,GI50,SK-MEL-5 melanoma,15.4 µM
same,TGI,SK-MEL-5 melanoma,29.2 µM
same,GI50,HCC-2998 colon,60.4 µM
same,TGI,HCC-2998 colon,> 100 µM
same,GI50,CAKI-1 renal,49.1 µM
same,TGI,CAKI-1 renal,> 100 µM
same,GI50,DU-145 prostate,51.1 µM
same,TGI,DU-145 prostate,> 100 µM
S=C(S)NCNC(=S)S.[Zn+2],TGI,COLO 205 colon,> 100 µM
same,TGI,SNB-19 CNS,> 100 µM
same,TGI,NCI/ADR-RES ovarian,> 100 µM
same,TGI,OVCAR-4 ovarian,> 100 µM
same,TGI,UACC-257 melanoma,> 100 µM
same,TGI,MOLT-4 leukemia,> 100 µM
same,TGI,EKVX NSCLC,> 100 µM
same,TGI,SNB-75 CNS,> 100 µM
same,TGI,T-47D breast,> 100 µM
same,TGI,SN12C renal,> 100 µM
same,TGI,A498 renal,> 100 µM
same,TGI,MDA-MB-435,> 100 µM
same,TGI,HCT-15 colon,> 100 µM
same,TGI,MDA-MB-231 breast,> 100 µM
same,TGI,UO-31 renal,> 100 µM
same,TGI,OVCAR-8 ovarian,> 100 µM
same,TGI,RXF 393 renal,> 100 µM
same,TGI,IGROV1 ovarian,> 100 µM
same,TGI,MDA-N,> 100 µM
same,TGI,KM12 colon,> 100 µM
same,TGI,TK-10 renal,> 100 µM
same,TGI,OVCAR-3 ovarian,> 100 µM
same,TGI,SF-295 CNS,> 100 µM
same,TGI,SW-620 colon,> 100 µM
same,TGI,HOP-62 NSCLC,> 100 µM
same,TGI,M14 melanoma,> 100 µM
same,TGI,SF-539 CNS,> 100 µM
same,TGI,A549 NSCLC,> 100 µM
same,TGI,K-562 leukemia,> 100 µM
same,TGI,HS 578T breast,> 100 µM
same,TGI,HL-60(TB) leukemia,> 100 µM
same,TGI,CCRF-CEM leukemia,> 100 µM
same,TGI,PC-3 prostate,> 100 µM
same,TGI,LOX IMVI melanoma,> 100 µM
same,TGI,UACC-62 melanoma,> 100 µM
same,TGI,MCF7 breast,> 100 µM
same,TGI,NCI-H460 lung,> 100 µM
same,TGI,MALME-3M melanoma,> 100 µM
same,TGI,NCI-H23 lung,> 100 µM
same,TGI,786-0 renal,> 100 µM
same,TGI,HOP-92 NSCLC,> 100 µM
same,TGI,OVCAR-5 ovarian,> 100 µM
same,TGI,SK-MEL-28 melanoma,> 100 µM
same,TGI,U251 CNS,> 100 µM
same,TGI,ACHN renal,> 100 µM
same,TGI,HCT-116 colon,> 100 µM
same,TGI,RPMI-8226 leukemia,> 100 µM
same,TGI,SK-OV-3 ovarian,> 100 µM
same,TGI,HT29 colon,> 100 µM
same,TGI,SF-268 CNS,> 100 µM
same,TGI,SK-MEL-5 melanoma,> 100 µM
same,TGI,HCC-2998 colon,> 100 µM
same,TGI,CAKI-1 renal,> 100 µM
same,TGI,DU-145 prostate,> 100 µM

# Reference: PubChem BioAssay (NCI)
